Results from patent publication US7208526B2, “Styrylsulfonamides” (Hoffmann-La Roche Inc., priority 2005, dated 2007).
Counter-ions that a name gives are not always drawn.

Test system: HCT 116 cells (human colon carcinoma, ATCC-No. CCl-247)
Assay: Viability assay in HCT 116 cells (CellTiter-Glo Luminescent Cell Viability Assay)
Assay type: cell-based
Details: 10 concentrations 30 μM to 0.0015 μM, incubation 120 h (5 days), luminescence (ATP), triplicate
Source text: Viability Assay in HCT 116 Cells
This assay is a homogeneous method of determining the number of viable cells in culture based on quantitation of the ATP present, an indicator of metabolically active cells. The assay is designed for use with multiwell formats, making it ideal for automated high-throughput screening (HTS), cell proliferation and cytotoxicity assays. The homogeneous assay procedure involves adding a single reagent (containing luciferase, luciferan substrate, and buffer) directly to cells cultured in serum-supplemented medium. Cell washing, removal of medium and multiple pipetting steps are not required. The system detects as few as 15 cells/well in a 384-well format in 10 minutes after adding reagent and mixing.
The homogeneous “add-mix-measure” format results in cell lysis and generation of a luminescent signal proportional to the amount of ATP present. The amount of ATP is directly proportional to the number of cells present in culture. The above-referenced assay generates a “glow-type” luminescent signal, produced by the luciferase reaction, which has a half-life generally greater than five hours, depending on cell type and medium used. The extended half-life eliminates the need to use reagent injectors and provides flexibility for continuous or batch mode processing of multiple plates. The unique homogeneous format avoids errors that may be introduced by other ATP measurement methods that require multiple steps.
For the assay the cells were seeded in 384 well plates, 1000 cells per well, in the same medium. […] After 5 days the viability assay was done according to the instructions of the manufacturer. In brief: the cell-plate was equilibrated to room temperature for approximately 30 minutes and then reagent (containing luciferase, luciferan substrate, and buffer) was added. The contents were carefully mixed for 15 minutes to induce cell lysis. After 45 minutes the luminescent signal was measured in Victor 2, (scanning multiwell spectrophotometer, Wallac).
In order to achieve a final concentration of 30 μM as highest concentration […] of 10 mM compound stock solution were added directly to 163 μl media. Then step e) of the dilution procedure described below, was followed.
Analysis: • Add 30 μl of reagent containing luciferase, luciferan substrate, and buffer per well, • shake 15 minutes at room temperature • incubate further 45 minutes at room temperature without shaking
Measurement: • Victor 2 scanning multiwell spectrophotometer (Wallac), Luminescence mode (0.5 sec/read, 477 nm) • Determine IC50 using a non-linear curve fit (XLfit® software [ID Business Solution Ltd., Guilford, Surrey, UK])

SMILES | IC50
Cc1ccc(/C=C/S(=O)(=O)NC(=O)c2ccc(Cl)cc2Cl)c(C)c1 [Example 1-4, (E)-2-(2,4-Dimethyl-phenyl)-ethenesulfonic acid 2,4-dichloro-benzoylamide] | 0.5 to 15 µM
COc1ccccc1/C=C/S(=O)(=O)NC(=O)c1ccc(Cl)cc1Cl [Example 1-5, (E)-2-(2-Methoxy-phenyl)-ethenesulfonic acid 2,4-dichloro-benzoylamide] | 0.5 to 15 µM
Cc1ccc(/C=C/S(=O)(=O)NC(=O)c2ccc(F)cc2C(F)(F)F)c(C)c1 [Example 1-20, (E)-2-(2,4-Dimethyl-phenyl)-ethenesulfonic acid 4-fluoro-2-trifluoromethyl-benzoylamide; sodium salt] | 0.5 to 15 µM
O=C(NS(=O)(=O)/C=C/c1ccccc1)c1ccc(F)cc1C(F)(F)F [Example 1-45, (E)-2-Phenyl-ethenesulfonic acid 4-fluoro-2-trifluoromethyl-benzoylamide; sodium salt] | 0.5 to 15 µM
O=C(NS(=O)(=O)/C=C/c1ccc(C(F)(F)F)cc1)c1ccc(Cl)cc1Cl [Example 1-3, (E)-2-(4-Trifluoromethyl-phenyl)-ethenesulfonic acid 2,4-dichloro-benzoylamide] | 0.5 to 15 µM
O=C(NS(=O)(=O)/C=C/c1ccccc1)c1ccc(Cl)cc1Cl [Example 1-2, (E)-2-Phenyl-ethenesulfonic acid 2,4-dichloro-benzoylamide] | 3.1 µM
O=C(NS(=O)(=O)/C=C/c1ccc(Cl)cc1)c1ccc(Cl)cc1Cl [Example 1-1, (E)-2-(4-Chloro-phenyl)-ethenesulfonic acid 2,4-dichloro-benzoylamide] | 8.5 µM
O=C(NS(=O)(=O)/C=C/c1ccccc1Cl)c1ccc(Cl)cc1Cl [Example 1-7, (E)-2-(2-Chlorophenyl)-ethenesulfonic acid 2,4-dichloro-benzoylamide] | 0.5 to 15 µM
O=C(NS(=O)(=O)/C=C/c1ccc(OC(F)(F)F)cc1)c1ccc(Cl)cc1Cl [Example 1-9, (E)-2-(4-Trifluoromethoxyphenyl)-ethenesulfonic acid 2,4-dichloro-benzoylamide] | 0.5 to 15 µM
COc1cccc(/C=C/S(=O)(=O)NC(=O)c2ccc(F)cc2Cl)c1 [Example 1-14, (E)-2-(3-Methoxy-phenyl)-ethenesulfonic acid 2-chloro-4-fluoro-benzoylamide; sodium salt] | 0.5 to 15 µM
O=C(NS(=O)(=O)/C=C/c1ccc(OC(F)(F)F)cc1)c1ccc(F)cc1Cl [Example 1-39, (E)-2-(4-Trifluoromethoxyphenyl)-ethenesulfonic acid 2-chloro-4-fluoro-benzoylamide; sodium salt] | 0.5 to 15 µM
Cc1ccc(/C=C/S(=O)(=O)NC(=O)c2ccc(C(F)(F)F)cc2C(F)(F)F)c(C)c1 [Example 1-26, (E)-2-(2,4-Dimethyl-phenyl)-ethenesulfonic acid 2,4-bis-trifluoromethyl-benzoylamide; sodium salt] | 0.5 to 15 µM
O=C(NS(=O)(=O)/C=C/c1cccc(O)c1)c1ccc(Cl)cc1Cl [Example 1-35, (E)-2-(3-Hydroxy-phenyl)-ethenesulfonic acid 2,4-dichloro-benzoylamide] | 0.5 to 15 µM

Next, values leading:

IC50 | SMILES
0.5 to 15 µM | Cc1cc(Br)ccc1C(=O)NS(=O)(=O)C=Cc1ccccc1Cl [Example 4-10, 2-(2-Chlorophenyl)-ethenesulfonic acid 4-bromo-2-methyl-benzoylamide; sodium salt]
0.5 to 15 µM | Cc1ccc(C(=O)NS(=O)(=O)/C=C/c2ccccc2)c(Br)c1 [Example 6-3, (E)-2-Phenyl-ethenesulfonic acid 2-bromo-4-methyl-benzoylamide; sodium salt]
0.5 to 15 µM | Cc1ccc(C(=O)NS(=O)(=O)/C=C/c2ccc(Cl)c(Cl)c2)c(C)c1 [Example 4-34, (E)-2-(3,4-Dichloro-phenyl)-ethenesulfonic acid 2,4-dimethyl-benzoylamide; sodium salt]
0.5 to 15 µM | COc1cccc(/C=C/S(=O)(=O)NC(=O)c2ccc(F)cc2Br)c1 [Example 4-18, (E)-2-(3-Methoxy-phenyl)-ethenesulfonic acid 2-bromo-4-fluoro-benzoylamide; sodium salt]
0.5 to 15 µM | Cc1ccc(C(=O)NS(=O)(=O)/C=C/c2ccc(C(F)(F)F)cc2)c(C)c1 [Example 4-40, (E)-2-(4-Trifluoromethyl-phenyl)-ethenesulfonic acid 2,4-dimethyl-benzoylamide; sodium salt]
0.5 to 15 µM | COc1cc(F)ccc1C(=O)NS(=O)(=O)/C=C/c1ccccc1 [Example 5-3, (E)-2-Phenyl-ethenesulfonic acid 4-fluoro-2-methoxy-benzoylamide]
0.5 to 15 µM | Cc1cc(Br)ccc1C(=O)NS(=O)(=O)/C=C/c1ccc(C(F)(F)F)cc1 [Example 4-35, (E)-2-(4-Trifluoromethyl-phenyl)-ethenesulfonic acid 4-bromo-2-methyl-benzoylamide; sodium salt]
0.5 to 15 µM | COc1ccccc1/C=C/S(=O)(=O)NC(=O)c1ccc(C)cc1Br [Example 4-13, (E)-2-(2-Methoxy-phenyl)-ethenesulfonic acid 2-bromo-4-methyl-benzoylamide; sodium salt]
0.5 to 15 µM | COc1cc(Br)ccc1C(=O)NS(=O)(=O)/C=C/c1ccccc1 [Example 5-1, (E)-2-Phenyl-ethenesulfonic acid 4-bromo-2-methoxy-benzoylamide]
0.5 to 15 µM | O=C(NS(=O)(=O)/C=C/c1ccccc1Cl)c1ccc(Br)cc1Cl [Example 4-28, (E)-2-(2-Chloro-phenyl)-ethenesulfonic acid 4-bromo-2-chloro-benzoylamide; sodium salt]
0.5 to 15 µM | Cc1ccc(C(=O)NS(=O)(=O)/C=C/c2ccccc2)c(C(F)(F)F)c1 [Example 5-2, (E)-2-Phenyl-ethenesulfonic acid 4-methyl-2-trifluoromethyl-benzoylamide]
0.5 to 15 µM | COc1ccccc1/C=C/S(=O)(=O)NC(=O)c1ccc(Br)cc1C [Example 4-8, (E)-2-(2-Methoxy-phenyl)-ethenesulfonic acid 4-bromo-2-methyl-benzoylamide; sodium salt]
0.5 to 15 µM | COc1cccc(/C=C/S(=O)(=O)NC(=O)c2ccc(Br)cc2Cl)c1 [Example 4-25, (E)-2-(3-Methoxy-phenyl)-ethenesulfonic acid 4-bromo-2-chloro-benzoylamide; sodium salt]
0.5 to 15 µM | O=C(NS(=O)(=O)/C=C/c1ccccc1Cl)c1ccc(F)cc1Br [Example 4-21, (E)-2-(2-Chlorophenyl)-ethenesulfonic acid 2-bromo-4-fluoro-benzoylamide; sodium salt]
0.5 to 15 µM | O=C(NS(=O)(=O)/C=C/c1ccccc1)c1ccc(Br)cc1Cl [Example 6-5, (E)-2-Phenyl-ethenesulfonic acid 4-bromo-2-chloro-benzoylamide; sodium salt]
0.5 to 15 µM | COc1ccccc1/C=C/S(=O)(=O)NC(=O)c1ccc(Cl)cc1C [Example 4-4, (E)-2-(2-Methoxy-phenyl)-ethenesulfonic acid 4-chloro-2-methyl-benzoylamide; sodium salt]
0.5 to 15 µM | O=C(NS(=O)(=O)/C=C/c1ccccc1)c1ccc(Cl)cc1Br [Example 5-4, (E)-2-Phenyl-ethenesulfonic acid 2-bromo-4-chloro-benzoylamide]
9.2 µM | C/C(=C\S(=O)(=O)NC(=O)c1ccc(Cl)cc1Cl)c1ccccc1 [Example 3-1, (E)-2-Phenyl-propene-1-sulfonic acid 2,4-dichloro-benzoylamide]
